Like-named read-outs stand apart in the source and are kept apart here.

Type in all cases: physicochemical
The nature of data set [1]: Solubility and dispersibility seen in PSD by wet dispersion. The text has this: The micronization may be performed on coarse ibuprofen using an air-jet mill or similar apparatus, such as a grinder or a mill. Other methods to micronize the ibuprofen include milling, bashing, cutting, or crushing. For example, two batches were micronized with an air-jet mill using a feed gas pressure of about 45 psi and a grinding pressure of about 45 psi. One batch was micronized a second time under the same conditions. Optionally, the ibuprofen may be micronized more than once. After micronization, particle size distribution was performed on the micronized ibuprofen by wet dispersion.
(§1) Following micronization, Particle Size Distribution (PSD) analysis was performed by wet dispersion. […] FIGS. 8A and 8B illustrate the SEM imagery of micronized ibuprofen at a 10 μm scale for Batch 1 and Batch 2, respectively. FIGS. 9A and 9B illustrate the SEM imagery of micronized ibuprofen at a 2 μm scale for Batch 1 and Batch 2, respectively. FIGS. 10A and 10B illustrate the PXRD of micronized ibuprofen for Batch 1 and Batch 2, respectively. Table 7 contains the data for moisture content of micronized ibuprofen as determined by simultaneous thermal analyzer (STA), which tests both by DTA (Differential Temperature Analysis) and TG (Thermogravimetry). FIGS. 11A, 11B, and 11C illustrate the hygroscopicity as determined GVS for coarse ibuprofen (FIG. 11A), Batch 1 (FIG. 11B), and Batch 2 (FIG. 11C).

Data set [2] can be described thus: Gravimetric vapor sorption (GVS). To be noted: for weight gain upon exposure to moisture (moisture adsorbed on the surface): adsorption-desorption isotherm. As for the experimental part:
Ibuprofen was characterized to determine the parameters necessary to administer a therapeutically effective amount using an inhalation delivery system. The methodology included particle size determination (PSD); powdered x-ray crystallization diffraction (PXRD); and gravimetric vapor sorption (GVS).
as §1

A short description of data set [3]: Stability study under accelerated degradation conditions, related substances. Particulars: 40° C. and 75% relative humidity. As for the experimental part:
A stability study was performed to determine the compatibility of the combined APIs under accelerated degradation conditions. Separate control samples of micronized cromolyn sodium (Sample A) and micronized ibuprofen (Sample B) were included in the study to be used as a comparator to the blend of Cromolyn/Ibuprofen (Sample C). The study was performed at 40° C. and 75% relative humidity. Measurements were taken at time 0, 1 month, 2 months, and 3 months.

Data set [4] is described as follows: Moisture content by simultaneous thermal analyzer (STA). Particulars: for % Moisture content / Enthalpy change: by STA. As for the experimental part: as §1
Data set [5] can be described thus: Particle size determination (PSD) of coarse ibuprofen. Particulars: for D10 / D50 / D90: Effect of Dispersant. The text has this: (§2) Coarse ibuprofen was characterized using PSD, PXRD, and GVS. […]
The average particle size determinations are illustrated in FIG. 5. The parameters and results were as follows: concentration 0.0406% Vol; span 1.493; uniformity 0.459; specific surface area 0.239 m^2/g; surface weighted mean […] 25.136 μm; and vol. weighted mean D[4,3] 62.020 μm.

Data set [6] is described as follows: Powdered x-ray diffraction (PXRD).
Source text: Ibuprofen was characterized to determine the parameters necessary to administer a therapeutically effective amount using an inhalation delivery system. The methodology included particle size determination (PSD); powdered x-ray crystallization diffraction (PXRD); and gravimetric vapor sorption (GVS). The methods determined that coarse ibuprofen was crystalline and non-hygroscopic. The results are summarized in Example 3.
as §2

Setting [7] is: average particle size determination, FIG. 5.

On to `CC(C)Cc1ccc(C(C)C(=O)O)cc1` (stereo not shown) [micronized ibuprofen, ibuprofen], for which, in data set [1], the dispersibility in water entry is recorded as “not dispersible in water”, the “solubility in organic solvents” value is listed as “highly soluble in organic solvents” and the “solubility in surfactant containing aqueous media” value is “soluble in different surfactants containing aqueous media even at low concentrations of the surfactant”. For the same compound, the “weight gain upon exposure to moisture (moisture adsorbed on the surface)” value (“weight gain upon exposure to moisture” for short) in data set [2] (listed as Micronize ibuprofen) was roughly 3%. In data set [2] (listed as Micronized ibuprofen), the “weight gain upon exposure to moisture” value is roughly 3%. In data set [3] (1 month), the “Individual Related Substances ≥ 0.5%, RRT 0.93, ibuprofen” value is on record as 0.07%; the “Individual Related Substances ≥ 0.5%, RRT 1.11, ibuprofen” value amounted to 0.05%; the “Total Impurities, ibuprofen” value was 0.1%. In addition, in data set [3] (2 months), the “Individual Related Substances ≥ 0.5%, RRT 0.93, ibuprofen” value is 0.07%; the “Individual Related Substances ≥ 0.5%, RRT 1.11, ibuprofen” value is reported as “<LOQ”; the “Total Impurities, ibuprofen” value is 0.1%. In data set [3] (3 months), the “Individual Related Substances ≥ 0.5%, RRT 0.93, ibuprofen” value is recorded as 0.07%; the “Individual Related Substances ≥ 0.5%, RRT 1.11, ibuprofen” value is “<LOQ”; the “Total Impurities, ibuprofen” value is on record as 0.1%. Further, in data set [3] (Initial T = 0), the “Individual Related Substances ≥ 0.5%, RRT 0.93, ibuprofen” value worked out at 0.07% and the “Total Impurities, ibuprofen” value came to 0.1%.
Consider `CC(C)Cc1ccc(C(C)C(=O)O)cc1` (stereo not shown) [Batch 2, ibuprofen], for which, in data set [4], the “% Moisture content” value came to 1.14% and the Enthalpy change was 94.4 J/g.
Consider `CC(C)Cc1ccc(C(C)C(=O)O)cc1` (stereo not shown) [coarse ibuprofen, ibuprofen], for which, in data set [4], the “% Moisture content” value is listed as 0.20% and the Enthalpy change is 131.0 J/g. In data set [4] (from the enthalpy change), the “Inference (crystalline or amorphous)” value was “Crystalline”. In data set [5] (T (Day) 0), this compound showed a D10 of 22.586 μm, a D50 of 57.693 μm and a D90 of 108.743 μm. In data set [5] (T (Day) 1), this compound yielded a D10 of 22.401 μm, a D50 of 57.611 μm and a D90 of 108.724 μm. Also, in data set [5] (setting [7]), the span was found to be 1.493, the specific surface area is reported as 0.239 m^2/g, the “surface weighted mean D[2,3]” value is recorded as 25.136 μm and the uniformity is on record as 0.459. Moreover, the “vol. weighted mean D[4,3]” value in data set [5] (setting [7]) was 62.020 μm. Besides, the crystallinity result in data set [6] is listed as “crystalline”. Moreover, in data set [2], the hygroscopicity result is recorded as “non-hygroscopic” and the “weight gain upon exposure to moisture” value was less than 0.2%. Besides, the “weight gain upon exposure to moisture” value in data set [2] (listed as Ibuprofen) is recorded as less than 0.2%. In addition, in data set [2] (listed as ibuprofen), the “weight gain upon exposure to moisture” value is recorded as less than 0.2% and the hygroscopicity result was “non-hydroscopic”. Further, the hygroscopicity result in data set [2] (listed as Coarse ibuprofen) is listed as “non-hydroscopic”.
Consider `O=C(O)c1cc(=O)c2c(OCC(O)COc3cccc4oc(C(=O)O)cc(=O)c34)cccc2o1` [Sample A, cromolyn sodium], for which the “Individual Related Substances ≥ 0.5%, cromolyn sodium” value in data set [3] (1 month), in data set [3] (2 months), in data set [3] (3 months) and in data set [3] (Initial T = 0) was 0.11% throughout. Further, the “Total Impurities, cromolyn sodium” value in data set [3] (1 month), in data set [3] (2 months), in data set [3] (3 months) and in data set [3] (Initial T = 0) was 0.1% throughout.
As for `CC(C)Cc1ccc(C(C)C(=O)O)cc1` (stereo not shown) [Batch 1, ibuprofen], in data set [4], the “% Moisture content” value is on record as 1.19% and the Enthalpy change worked out at 120.5 J/g.

The record behind these values is patent US10561612B2, “Powdered formulations of cromolyn sodium and ibuprofen” (AZTherapies, Inc., priority 2017, dated 2020).
